In ChEMBL document CHEMBL1141890, “DNA topoisomerase I inhibitors from Rinorea anguifera” (Bioorg Med Chem Lett, 2005):

Tests used:
[1] = target: T1, DNA topoisomerase 1 (Homo sapiens) (UniProt P11387); conditions: 2 uM
T1 sequence (whole entry): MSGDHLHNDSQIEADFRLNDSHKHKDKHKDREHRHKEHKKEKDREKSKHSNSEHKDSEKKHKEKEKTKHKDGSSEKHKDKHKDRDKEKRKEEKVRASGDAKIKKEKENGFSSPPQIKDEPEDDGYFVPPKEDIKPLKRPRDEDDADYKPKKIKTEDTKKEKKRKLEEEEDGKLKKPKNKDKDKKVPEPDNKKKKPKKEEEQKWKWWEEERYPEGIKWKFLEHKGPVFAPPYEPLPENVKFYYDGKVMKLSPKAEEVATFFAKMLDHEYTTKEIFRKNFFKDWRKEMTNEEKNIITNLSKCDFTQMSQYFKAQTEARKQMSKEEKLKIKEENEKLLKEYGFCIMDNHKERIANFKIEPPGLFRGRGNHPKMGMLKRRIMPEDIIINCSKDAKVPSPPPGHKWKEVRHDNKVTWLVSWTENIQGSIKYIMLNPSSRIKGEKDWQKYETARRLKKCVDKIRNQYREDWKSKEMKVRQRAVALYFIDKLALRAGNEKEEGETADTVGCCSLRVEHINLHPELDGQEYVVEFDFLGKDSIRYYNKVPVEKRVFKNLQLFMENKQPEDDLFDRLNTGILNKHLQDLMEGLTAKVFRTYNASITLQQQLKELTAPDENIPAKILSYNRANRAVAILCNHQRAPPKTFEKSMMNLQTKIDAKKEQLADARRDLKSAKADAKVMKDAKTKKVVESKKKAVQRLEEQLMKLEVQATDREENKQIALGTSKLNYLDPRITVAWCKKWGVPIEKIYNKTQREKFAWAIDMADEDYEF
Description: Effect on stabilization of human topoisomerase I-DNA covalent complex at 2 uM

[2] = target: T1, DNA topoisomerase 1 (Homo sapiens); conditions: 2 uM; remark: listed apart in the source
Description: Effect on DNA breakge as nicked FormII at 2 uM without topoisomerase I

[3] = target: T1, DNA topoisomerase 1 (Homo sapiens); conditions: 0.25 uM
Description: Effect on DNA breakge as nicked FormII at 0.25 uM with topoisomerase I

[4] = target: T1, DNA topoisomerase 1 (Homo sapiens); assay: Effect on stabilization of human topoisomerase I-DNA covalent complex at 100 uM
[5] = target: T1, DNA topoisomerase 1 (Homo sapiens); assay: Effect on DNA breakge as nicked FormII at 1 uM with topoisomerase I; assay type: functional
[6] = target: T1, DNA topoisomerase 1 (Homo sapiens); assay: Effect on DNA breakge as nicked FormII at 100 uM without topoisomerase I; assay type: functional

`CC[C@@]1(O)C(=O)OCc2c1cc1n(c2=O)Cc2cc3ccccc3nc2-1` was tested, and the Effect [1] was 2%, the Effect [2] was 96% and the Effect [3] was 84%.

With `COc1cc([C@H]2OC[C@H]3[C@@H]2CO[C@@H]3c2cc(OC)c(O)c(OC)c2)cc(OC)c1O` the Effect [4] was 2%, the Effect [5] was 8% and the Effect [6] was 15%.

For `CC1O[C@@H](OC[C@H]2O[C@@H](Oc3c(-c4ccc(O)cc4)oc4cc(O)cc(O)c4c3=O)C(O[C@@H]3O[C@H](C)[C@H](O)C(O)C3O)C(O)[C@H]2O)C(O)[C@@H](O)[C@H]1O` (some centres undefined), the Effect [4] was 10%, the Effect [5] was 31% and the Effect [6] was 75%.
